Measurements reported in patent publication US5705693A, “Cationic lipids” (Gilead Sciences, Inc., priority 1995, dated 1998).

How the values were obtained:
ECl cells = test: Transfection of ECl cells with ODN1 (Example 10); assay type: cell-based, human; settings: for % ECl transfected: DMEM
Text: (§1) Preparation of lipid-nucleic acid complexes and cell transfection.

L7 cells = test: Transfection of L7 cells with ODN1 (Example 11); assay type: cell-based, murine; settings: for % L7 transfected: 20% FBS, 18 h, 250 pmole ODN1
Text: as §1

cells [1] = test: Amount of fluorescently labeled oligonucleotide delivered versus commercially available lipids; assay type: cell-based; settings: observed fluorescence intensity, estimated
Text: The difference in transfection efficiency between lipids described herein and commercially available lipids is usually most pronounced when the transfections are done in the presence of medium containing serum. The amount of polyanion delivered into cells was estimated to be about 2- to 100-fold greater for lipids 30, 34 and 35 based on the observed fluorescence intensity of transfected cells after transfection using a fluorescently labeled oligonucleotide. The cationic lipids described herein also transfect some cell types that are not detectably transfected by commercial lipids, particularly where the transfection is conducted in the presence of serum.

HL60 cells = test: Transfection of HL60 cells with 30/ODN1 (Example 8); assay type: cell-based, human; settings: for % HL60 transfected: 500 pmole ODN1
Text: as §1
(§2) The toxicity noted for HL60 cells may have been at least partly due to the high level of ODN1 that was delivered to the cells.

cells [2] = test: Transfection with filtered preparations; assay type: cell-based; settings: 1:1 DOPE, sonicated; for transfection efficiency of 50 nm filtered preparations relative to larger particles: 50 nm filter; for transfection efficiency of 200 nm or 100 nm filtered preparations: in words
Description: The invention cationic lipids 30 or 34 and DOPE colipid (1:1) were prepared by sonication and then filtered using 200, 100 or 50 nm filters to obtain particles less than about 200 nm in diameter, less than about 100 nm and less than about 50 nm. […] The 50 nm filtered preparations were about 40-50% as efficient as the preparations containing larger particles. The size of the particles or miscelles in a given preparation will vary depending on the preparation method. Sonicating cationic lipid-colipid mixtures will provide smaller miscelles and vortexing will provide larger miscelles (Felgner J. Biol. Chem. (1994) 269:2550-2561). Such miscelles are believed to transfer the polyanion into the cytoplasm of a eukaryotic or prokaryotic cell by pinocytosis, endocytosis and/or by direct fusion with the plasma membrane.

CV-1 cells [3] = tested on: CV-1 cells
Description: (§4) Preparation of lipid-nucleic acid complexes and cell transfection. Lipids were prepared for complexing with nucleic acids by drying a cationic lipid-colipid mixture in CHCl3 under argon. The molar ratio of cationic lipid to colipid was adjusted by adding appropriate amounts of each lipid in CHCl3 together prior to drying. Usually 10 mL of water was added to a 100 mL round bottom flask containing a dried film of lipid and colipid. The lipids consisted of a mixture of an invention cationic lipid and the colipid DOPE (dioleylphosphatidylethanolamine). Sterile-filtered water or a low ionic strength aqueous buffer such as physiological saline, TE (10 mM tris, 1 mM EDTA, pH 7-8) or Ringer's solution was then added to the dried lipids to obtain a lipid suspension at 1 mg lipid/mL followed by a 10 minute bath sonication (Ultra Sonik 100, NEY) at room temperature to suspend the lipids in the flask. The suspended lipids (10 mL) were then sonicated 5 times for 15 seconds per sonication at 0°-4° C. with about 30-60 seconds between pulses. Sonication was usually conducted in a 15 mL polypropylene culture tube. A probe sonicator (Sonifier 250, Branson Ultrasonics) was used at maximum power for the ice bath sonication and for each 15 second pulse. The lipid suspension was optionally filtered or centrifuged (2000 rpm, 10 minutes at 0-4° C.) to remove large particulate matter and the resulting lipid suspensions were kept at 4° C. until used.
(§5) Lipid nucleic acid complexes were prepared by mixing (a) 10% v/v (usually 100 μL) oligonucleotide in Optimem™ (Bethesda Research Labs, Inc.) at room temperature (about 19°-24° C.) with (b) 10% v/v lipid suspension in Optimem™ at room temperature and allowing the mixture to stand for about 15 minutes, followed by adding (c) 80% v/v Optimem™ without serum or 80% v/v tissue culture medium (Modified Essential Medium (MEM), Dulbecco's Modified Eagle's Medium (DMEM), etc. containing 0-80% fetal bovine serum (Hyclone, Inc.). The lipid and nucleic acid solutions could also be prepared using DMEM without serum, a low ionic strength (less than about 200 mM total ion concentration) aqueous medium lacking phosphate (TE, etc) or water in place of Optimem™. Typically, 100 μL each of Optimem™ containing oligonucleotide (100-500 pmole) and Optimem™ containing added lipid was mixed with 800 μL of serum free Optimem™ or with 800 μL of tissue culture medium containing 10-80% FBS. Generally, 5 or 10 μL (5 or 10 μg) of lipid was added to 95 or 90 μL of Optimem™ to give a final 1 mL transfection preparation containing 5 or 10 μg of lipid and 250 pmole of oligonucleotide. The lipid-nucleic acid mixture was held at room temperature for about 15 min hours before adding medium to give the final transfection preparation volume (usually 1 mL) and warming to 37° C. and immediately applying onto the cells. The transfection mixture was left on the cells for 2 to 24 hours (at 37° C.), with a 6 hour time period commonly used.
(§6) Cells were typically transfected using 1 mL of transfection mixture per well in a 6-well plate. Cells at about 50-100% confluency were used. […] Typical transfections with the invention lipids used cells at about 60-100% confluency.

A10 cells = test: Transfection of A10 cells with ODN1 (Example 6); assay type: cell-based, rat; settings: 18 h, 10% FBS
Text: as §1
Cells at about 50-100% confluency were used.

SK-OV-3 cells = test: Transfection of SK-OV-3 cells with ODN1 in 40% or 80% FBS (Example 7); assay type: cell-based, human; settings: for % SK-OV-3 transfected: 18 h, 500 pmole ODN1, 1:1 DOPE
Text: as §1
80% serum approximates the serum protein and ion conditions that exist in vivo in mammalian circulation. 30 is thus suitable for transfecting cells under physiological conditions.

HUVEC cells = test: Transfection of HUVEC cells with ODN1 (Example 9); assay type: cell-based, human; settings: for % HUVEC transfected: 10% serum, 5 h, 500 pmole ODN1
Text: as §1

CV-1 cells [4] = test: Transfection of CV-1 cells with 30/ODN1 (Example 8); assay type: cell-based, African green monkey; settings: for % CV-1 transfected: 18 h, 500 pmole ODN1
Text: as §1, §2

NHEK cells = test: Transfection of NHEK cells with ODN1 (Example 10); assay type: cell-based, human; settings: for % NHEK transfected: DMEM, 24 h
Text: as §1

CV-1 cells [5] = test: Transfection of CV-1 cells with ODN1 and toxicity (Example 6); settings: 18 h, 10% FBS
Description: as §4, §5, §6

CV-1 cells [6] = test: Transfection of CV-1 cells with CAT RNA (Example 16); assay type: cell-based, African green monkey; settings: 2.5 μg RNA, 5 μg lipid, 24 h, DMEM 10% FBS or Optimem
Description: CV-1 cells were transfected for 24 hours with RNA encoding chloramphenicol acetyltransferase (CAT). The transfections used 2.5 μg of RNA, 5 μg of 34 and DMEM with 10% FBS or Optimem™ with no serum. CAT activity was measured by immunofluorescence staining using fluorescent labeled anti-CATantibodies (5',3'Inc.). The cells were observed as previously described (Wagner, Science (1993) 260:1510).

Caov-3 cells = test: Transfection of Caov-3 cells with ODN1 using 34 (Example 12); assay type: cell-based, human; settings: 6 h, 1:1 DOPE
Description: as §1
(§3) SK-BR-3, Caco-2, Caov-3 and MCF7 cells were transfected with ODN1 using 34 which was prepared as described in Example 5 using a 1:1 molar ratio of DOPE colipid. The sonicated lipid-colipid mixture (1 mL of a 2.5, 5 or 10 μg/mL suspension) was mixed with 250 pmole ODN1 and allowed to stand […] at room temperature […] before adding 1 mL of the lipid-ODN1 complex to the cells. The lipid-ODN1 complex was removed from the cells after 6 hours by washing the cells twice in PBS, followed by observing the cells in serum-containing medium immediately after removing the lipid-ODN1 complex.

[7] = as above; assay type: cell-based, human; settings: human, caov-3 cells; Caov-3, 10.0 μg lipid; read-out: toxicity
Description: as §1, §3

T antigen = test: Antisense inhibition of T antigen expression in CV-1 cells with ODN2A (Example 19); assay type: cell-based, African green monkey
Description: ODN2A, which was ODN2 lacking the fluorescent label at the 3' terminus, was used as an antisense oligonucleotide to inhibit T antigen expression in CV-1 cells using the protocol previously described (Wagner Science (1993) 260:1510-1513). CV-1 cells were transfected for 18 hours using 5 μg of 34 (1:1 molar ratio with DOPE colipid) and then cell nuclei were microinjected with T antigen plasmid using a needle concentration of 0.003 μg/mL of T antigen plasmid (ibid at page 1513, first column, note 5) and 0.025 μg/mL of β-galactosidase plasmid. The cells were scored for T antigen expression 4.5 hours after removing the transfection preparation from the cells. The cells were immunostained for β-galactosidase expression as an internal control for microinjected cells and the proportion of cells expressing both T antigen and β-galactosidase was determined.

SK-BR-3 cells = test: Transfection of SK-BR-3 cells with ODN1 using 34 (Example 12); assay type: cell-based, human; settings: 6 h, 1:1 DOPE
Description: as §1, §3

MCF7 cells = test: Transfection of MCF7 cells with ODN1 using 34 (Example 12); assay type: cell-based, human; settings: 6 h, 1:1 DOPE
Description: as §1, §3

[8] = Transfection of Caco-2 cells with ODN1 using 34 (Example 12); assay type: cell-based, human; settings: human, caco-2 cells; Caco-2, 5.0 μg lipid; read-out: toxicity
Description: as §1, §3

Caco-2 cells = test: as above; assay type: cell-based, human; settings: 6 h, 1:1 DOPE
Description: as §1, §3

[9] = fluorescence observation, in words
[10] = 15 μg/mL lipid, 1:1 DOPE, 250 pmole ODN1

SMILES: CCCCCCCCCCCCCCCCCCN(CCCCCCCCCCCCCCCCCC)C(=O)CNC(=O)[C@@H](N)CCCN.Cl.Cl [Compound 30]
- % ECl transfected (ECl cells; 2.5 μg/mL lipid, 5 hour transfection): 10%
- % ECl transfected (ECl cells; 5 μg/mL lipid, 5 hour transfection): 25-30%
- % ECl transfected (ECl cells; 5 μg/mL lipid, 6 hour transfection): 30%
- % ECl transfected (ECl cells; 10 μg/mL lipid, 5 hour transfection): 51%
- % ECl transfected (ECl cells; 10 μg/mL lipid, 6 hour transfection): 43%
- % ECl transfected (ECl cells; 15 μg/mL lipid, 5 hour transfection): 70%
- % ECl transfected (ECl cells; 20 μg/mL lipid, 6 hour transfection): 20%
- level of ODN1 delivered into ECl cells (ECl cells; [9]): high levels
- toxicity ECl (ECl cells; in words): little to moderate toxicity
- transfection of ECl (ECl cells; in words): efficiently transfected
- % L7 transfected (L7 cells; 2.5 μg/mL lipid): 10%
- % L7 transfected (L7 cells; 5 μg/mL lipid): 30%
- % L7 transfected (L7 cells; 10 μg/mL lipid): 60%
- toxicity L7 (L7 cells; in words): little or no toxicity
- transfection of L7 (L7 cells; in words): efficiently transfected
- amount of polyanion delivered into cells relative to commercially available lipids (cells [1]): 2- to 100 fold
- % HL60 transfected (HL60 cells; 20 μg/mL, 0% serum, 5 h): 77%
- % HL60 transfected (HL60 cells; 20 μg/mL, 10% serum, 5 h): 76%
- toxicity HL60 (HL60 cells; 20 μg/mL, 10% serum, 5 h, footnote): significant toxicity noted
- transfection of HL60 (HL60 cells; in words): efficiently transfected
- transfection efficiency of 50 nm filtered preparations relative to larger particles (cells [2]): 40-50%
- transfection efficiency of 200 nm or 100 nm filtered preparations (cells [2]): the most efficient (and equally efficient)
- toxicity to CV-1 cells (CV-1 cells [3]): little or no toxicity
- cells transfected A10 (A10 cells; [10]): 95
- toxicity to A10 cells (A10 cells; in words): little or no toxicity
- transfection of A10 in the presence of serum (A10 cells; in words): efficiently transfected
- % SK-OV-3 transfected (SK-OV-3 cells; 40% serum): 76%
- % SK-OV-3 transfected (SK-OV-3 cells; 80% serum): 72%
- transfection of SK-OV-3 in the presence of serum (SK-OV-3 cells; in words): efficiently transfected
- % HUVEC transfected (HUVEC cells; 5 μg/mL lipid): 1%
- % HUVEC transfected (HUVEC cells; 10 μg/mL lipid): 5%
- transfection of HUVEC (HUVEC cells; in words): modest efficiency
- % CV-1 transfected (CV-1 cells [4]; 2.5 μg/mL, 10% serum): 90%
- % CV-1 transfected (CV-1 cells [4]; 5 μg/mL, 10% serum): > 95%
- % CV-1 transfected (CV-1 cells [4]; 10 μg/mL, 10% serum): > 95%
- % CV-1 transfected (CV-1 cells [4]; 15 μg/mL, 10% serum): > 95%
- % CV-1 transfected (CV-1 cells [4]; 20 μg/mL, 50% serum): 95%
- % CV-1 transfected (CV-1 cells [4]; 20 μg/mL, 80% serum): 90%
- transfection of CV-1 at reduced levels of lipid (CV-1 cells [4]; in words): efficiently transfected
- % NHEK transfected (NHEK cells; 1 μg/mL lipid, second series): 25%
- % NHEK transfected (NHEK cells; 2.5 μg/mL lipid, second series): 50%
- % NHEK transfected (NHEK cells; 5 μg/mL lipid, first series): 80-90%
- % NHEK transfected (NHEK cells; 5 μg/mL lipid, second series): 60-70%
- % NHEK transfected (NHEK cells; 10 μg/mL lipid, first series): 70%
- % NHEK transfected (NHEK cells; 10 μg/mL lipid, second series): 60-70%
- % NHEK transfected (NHEK cells; 20 μg/mL lipid, first series): 60%
- level of ODN1 delivered into NHEK cells (NHEK cells; [9]): high levels
- toxicity NHEK (NHEK cells; in words): little to moderate toxicity
- transfection of NHEK (NHEK cells; in words): efficiently transfected
- cells transfected CV-1 (CV-1 cells [5]; [10]): 85
- transfection of CV-1 in the presence of serum (CV-1 cells [5]; in words): efficiently transfected

SMILES: CCCCCCCCCCCCCCCCCCN(CCCCCCCCCCCCCCCCCC)C(=O)CNC(=O)[C@@H](N)CCCNC(=N)NC(=O)OC(C)(C)C [Compound 34]
- cells expressing CAT (CV-1 cells [6]): 1-2%
- amount of polyanion delivered into cells relative to commercially available lipids (cells [1]): 2- to 100 fold
- % transfected (Caov-3 cells; Caov-3, 2.5 μg lipid): 20%
- % transfected (Caov-3 cells; Caov-3, 5.0 μg lipid): 20%
- % transfected (Caov-3 cells; Caov-3, 10.0 μg lipid): 61%
- cytotoxicity at 6 h [7]: < 10%
- efficiency in delivering ODN2A into cells compared with Lipofectin (T antigen; 5 μg, 1:1 DOPE, 18 h, ODN2A needed to inhibit T antigen expression to an equal extent): about 10 fold
- delivery of antisense oligomer (T antigen; in words): efficiently delivered the antisense oligomer into the cells without interfering with the capacity of the oligonucleotide to inhibit gene (protein) expression
- transfection efficiency of 50 nm filtered preparations relative to larger particles (cells [2]): 40-50%
- transfection efficiency of 200 nm or 100 nm filtered preparations (cells [2]): the most efficient (and equally efficient)
- % transfected (SK-BR-3 cells; SK-BR-3, 2.5 μg lipid): 60-70%
- % transfected (SK-BR-3 cells; SK-BR-3, 5.0 μg lipid): > 90%
- % transfected (SK-BR-3 cells; SK-BR-3, 10.0 μg lipid): > 90%
- % transfected (MCF7 cells; MCF7, 2.5 μg lipid): 30-50%
- % transfected (MCF7 cells; MCF7, 5.0 μg lipid): 83%
- % transfected (MCF7 cells; MCF7, 10.0 μg lipid): 80%
- cytotoxicity at 6 h [8]: < 10%
- % transfected (Caco-2 cells; Caco-2, 2.5 μg lipid): < 5%
- % transfected (Caco-2 cells; Caco-2, 5.0 μg lipid): 10-15%
- % transfected (Caco-2 cells; Caco-2, 10.0 μg lipid): 0%
